These results are taken from patent US20090246212A1, “DEVELOPMENT OF METHOD FOR SCREENING FOR DRUG CAPABLE OF IMPROVING PRODUCTION OF REGULATORY T CELLS AND METHOD FOR PRODUCING REGULATORY T CELLS USING IMMUNOSUPPRESSIVE MACROLIDE ANTIBIOTIC” (KYOTO UNIVERSITY, priority 2005, published 2009).

Structures are written as SMILES.

Assay [1] concerns CD45RA^+CD25^−CD4^+ T cells. The assay can be described thus: Expansion culture of CD45RA^+CD25^−CD4^+ T cells with anti-CD3/CD28 beads and IL-2, rapamycin added. It counts as cell-based, human. The protocol:
Venous blood was obtained from healthy volunteers (human). Peripheral blood mononuclear cell (PBMC) was isolated by Ficoll-Hypaque (Amersham Biosciences-Uppsala) density gradient centrifugation. The cells were stained with allophycocyanin (APC)-conjugated anti-CD4 monoclonal antibody (mAb), phycoerythrin (PE)-conjugated anti-CD25 mAb, and fluorescein isothiocyanate (FITC)-conjugated anti-CD45RA mAb for 30 min at 4° C. in the dark, after which the following six different cell fractions were isolated using a BD FACSAria cell sorter (Becton Dickinson)(see FIG. 1A).
(§1) CD45RA^+CD25^+CD4^+ T cells or CD45RA^+CD25^−CD4^+ T cells (5×10̂4 cells/well) separated as described above were stimulated with anti-human CD3 and CD28 conjugate beads in a ratio of 4 beads per cell in a 96-well round-bottomed culture plate containing 200 μl per well of a proliferation medium (AlyS505N (produced by Cell Science & Technology Institute) supplemented with 2% human AB serum) in the presence of human IL-2 (1000 U/ml, produced by Cell Science & Technology Institute). Rapamycin (20 nM, produced by Sigma) was added as appropriate. Every 3 to 4 days, half of the medium was replaced with a fresh proliferation medium containing IL-2. If necessary, the cells were separated and repeatedly re-stimulated with anti-CD3/CD28 antibody conjugated beads every 10 to 14 days. Two days before functional assay, the anti-CD3/CD28 antibody conjugated beads were removed magnetically, and the cells were cultured along with 100 U/ml IL-2 in the absence of rapamycin. After 3 times of washing, the cells were used for functional assay.

Assay [2] relates to CD45RA^+CD25^+CD4^+ T cell line. The assay is described as follows: Suppression assay ([^3H] thymidine uptake) of the rapamycin-cultured CD45RA^+CD25^+CD4^+ T cell line. Particulars: then 2 days without rapamycin. It is filed as cell-based, human. The protocol: as §1, with “Two days before functional assay, the anti-CD3/CD28 antibody conjugated beads were removed magnetically, and the cells were cultured along with 100 U/ml IL-2 in the absence of rapamycin. After 3 times of washing, the cells were used for functional assay.” left out
The indicated number of CD45RA^+CD25^+CD4^+ T cells just isolated from human peripheral blood, expanded CD45RA^+CD25^+CD4^+ T cell lines, or expanded CD45RA^+CD25^−CD4^+ T cell line, alone or along with self responder CD4^+ T cells (5×10̂4 cells/well), were stimulated with radiated (40 Gy) allogenic PBMC (1×10̂5 cells/well) in a round-bottomed 96-well microplate containing a proliferation medium. […] Subsequently, the cells were recovered, and [^3H] thymidine uptake was measured using 1450 Microbeta TriLux (Wallac).

Assay [3] shares this test system. The assay is described as follows: Mixed lymphocyte reaction with trans-well, rapamycin-cultured CD45RA^+CD25^+CD4^+ T cell line. Particulars: rapamycin 20 nM from day 40. It counts as cell-based, human. The protocol: (§2) CD45RA^+CD25^+CD4^+ T cells or CD45RA^+CD25^−CD4^+ T cells in human peripheral blood separated in the same manner as Example 1 (5×10̂4 cells/well) were stimulated with anti-human CD3 and CD28 conjugate beads in a ratio of 4 beads per cell in a 96-well round-bottomed culture plate containing 200 μl per well of a proliferation medium (AlyS505N (produced by Cell Science & Technology Institute) supplemented with 2% human AB serum) in the presence of human IL-2 (1000 U/ml, produced by Cell Science & Technology Institute). Rapamycin (20 nM, produced by Sigma) was added to the medium 40 days after the start of cultivation. Every 3 to 4 days, half of the medium was replaced with a fresh proliferation medium containing IL-2. If necessary, the cells were separated and repeatedly re-stimulated with anti-CD3/CD28 antibody conjugate beads every 10 to 14 days. Fifty days after the start of cultivation, the cells were collected and used for functional assay.
(§3) Total CD4^+ T cells in peripheral blood were isolated in the same manner as Example 1. […] The culture product was collected, and [3H] thymidine uptake was measured using 1450 Microbeta TriLux (Wallac).

In assay [4] the test system is CD45RA^+CD25^−CD4^+ T cell line. The assay can be described thus: Mixed lymphocyte reaction with trans-well, rapamycin-cultured CD45RA^+CD25^−CD4^+ T cell line. It counts as cell-based, human. Particulars: rapamycin 20 nM from day 40. The protocol: as §2, §3
For a further assay, the system named is Candida albicans. Particulars: both in vitro and in vivo, particularly against Candida albicans; cited from earlier work.
Assay [5] has as its system experimental allergic encephalomyelitis model. Particulars: model of multiple sclerosis; cited from earlier work.
Where [6] appears, read: conditions that allow cell contact.
Where [7] appears, read: contact blocked with the trans-well.

On to `CO[C@H]1C[C@@H]2CC[C@@H](C)[C@@](O)(O2)C(=O)C(=O)N2CCCC[C@H]2C(=O)O[C@H]([C@H](C)C[C@@H]2CC[C@@H](O)[C@H](OC)C2)CC(=O)[C@H](C)/C=C(\C)[C@@H](O)[C@@H](OC)C(=O)[C@H](C)C[C@H](C)/C=C/C=C/C=C/1C` [rapamycin], for which, in assay [1] (rapamycin 20 nM added 19 days after start of cultivation), the “influence on the proliferation of the T cell line” value is on record as “almost no influence”. Moreover, the “proliferation of CD45RA^+CD25^−CD4^+ T cells” value in assay [1] (rapamycin 20 nM from the start of cultivation, compared with cultivation in the absence of rapamycin) is given as “slightly suppressed”. Further, the “increase of cell number in the culture product” value in assay [1] (rapamycin 20 nM from the start of cultivation, about 35 days after start) was “about 700 times”. The “T cell line's effect on proliferation of CD4^+ T cells in response to alloantigen-presenting cells” value in assay [2] (rapamycin added day 7 or day 39, collected 50 days after start) was “strongly suppressed”; in assay [2] (rapamycin from day 0, 50 days culture), “strongly suppressed”. For the same molecule, the “T cell line's effect on proliferation of total CD4^+ T cells” value in assay [3] (setting [6]) and in assay [4] (setting [6]) was “strongly suppressed” in each case. Moreover, the “suppression of the proliferation of total CD4^+ T cells by the T cell line” value is given as “interrupted” in assay [3] (setting [7]) and “continued to suppress” in assay [4] (setting [7]). Also, the antifungal activity result in the assay on Candida albicans was “possess antifungal activity”. The “efficacy in experimental allergic encephalomyelitis model” value in assay [5] is given as “effective”.
